In general, melting point refers to the temperature of the solid-liquid transition. By pA2 is commonly meant a measure of antagonist potency on a negative log scale.

We go through 19 molecules from patent US6608086B2, “Dihydropyridines and new uses thereof” (Synaptic Pharmaceutical Corporation, priority 1993, dated 2003).

One series has as its system human prostatic tissue. In words: In vitro human prostate model: block of phenylephrine-induced contraction of human prostatic tissue. It is filed as cell-based. Particulars: block of phenylephrine-induced contraction of human prostate. From the text: The protocol for these experiments is given below.
Functional Properties of α1 Antagonists in the Human Prostate
The efficacy of α1 adrenergic antagonists for the treatment of benign prostatic hyperplasia (BPH) is related to their ability to elicit relaxation of prostate smooth muscle. An index of this efficacy can be obtained by determining the potency of al antagonists to antagonize the contraction of human prostatic tissue induced by an α1 agonist “in vitro”. Furthermore, by comparing the potency of subtype selective α1 antagonists in binding assays using human α1 receptors with their potency to inhibit agonist-induced smooth muscle contraction, it is possible to determine which of the α1 adrenergic receptor subtypes is involved in the contraction of prostate smooth muscle.
Prostatic adenomas were obtained at the time of surgery from patients with symptomatic BPH. […] The baths were maintained at 37° C. and continuously oxygenated with 5% CO2 and 95% O2. Isometric tension was measured with a Grass Instrument FT03 force transducer interfaced with a computer. Tissue strips were contracted with varying concentrations of phenylephrine after incubating for 20 minutes in the absence and presence of at least three different concentrations of antagonist. Dose-response curves for phenylephrine were constructed, and the antagonist potency (pA2) was estimated by the dose-ratio method. The concentration of some antagonists in the tissue bath was assessed by measuring the displacement of [3H]prazosin by aliquots of the bath medium, using membrane preparations of the cloned human α1C receptor. This control was necessary to account for losses of antagonist due to adsorption to the tissue bath and/or metabolism during the time the antagonists were equilibrated with the prostate tissue.

Another series relates to canine prostate. Briefly: In vivo dog prostate model: inhibition of phenylephrine-induced increase in urethral pressure in anesthetized dogs. Conditions: inhibition of phenylephrine-induced increases in urethral pressure, anesthetized dogs.
For series [1], the target named is T1, α1B Human Adrenergic Receptor (Homo sapiens, UniProt P35368).
T1 construct: The entire coding region of α1B (1563 bp); expressed in transfected cells
T1 sequence (P35368 1-520): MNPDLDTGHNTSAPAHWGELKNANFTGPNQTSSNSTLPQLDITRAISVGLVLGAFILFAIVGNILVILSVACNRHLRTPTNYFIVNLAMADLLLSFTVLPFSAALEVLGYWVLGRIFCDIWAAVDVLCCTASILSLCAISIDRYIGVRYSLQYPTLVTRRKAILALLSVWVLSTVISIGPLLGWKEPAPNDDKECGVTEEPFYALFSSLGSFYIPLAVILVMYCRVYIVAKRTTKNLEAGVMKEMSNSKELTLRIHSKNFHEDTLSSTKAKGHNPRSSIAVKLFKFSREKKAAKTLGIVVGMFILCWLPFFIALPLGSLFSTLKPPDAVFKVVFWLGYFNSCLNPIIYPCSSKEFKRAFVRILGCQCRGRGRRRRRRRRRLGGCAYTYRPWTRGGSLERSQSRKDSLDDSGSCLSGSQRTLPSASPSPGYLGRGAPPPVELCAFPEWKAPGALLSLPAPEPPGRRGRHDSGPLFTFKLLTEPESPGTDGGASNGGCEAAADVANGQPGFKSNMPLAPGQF
Briefly: Radioligand binding, [3H]prazosin, cloned human α1B adrenergic receptor. The procedure, abridged: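 [3H]prazosin (0.5 nM) binding was run for 20 min at 37° C in pH 7.5 Tris/MgCl2/ascorbate buffer on membranes of LM(tk−) cells stably expressing the cloned receptor. Filtration through GF/B ended the reaction; 10 μM phentolamine gave nonspecific binding.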

The mark [2] stands for this setting: pKi alpha-1 1b, cloned human receptor in LM(tk-) cell membranes, SEM and n in lines below.
Where [3] appears, read: cloned human receptor in LM(tk-) cell membranes, SEM and n in lines below, read-out: pKi alpha-1 1b (converted).
Setting [4] is: pKi alpha-1 1b, cloned human α1B receptor, LM(tk−) cell membranes.

Counter-ions that a name gives are not always drawn. Like-named read-outs stand apart in the source and are kept apart here.

Procedure for canine prostate: Protocol for In Vivo Evaluation of Compounds in Canine Prostate
Adult male mongrel dogs more than one year of age were chosen for the model. After induction of general anesthesia using sodium pentobarbital (25 mg/Kg i.v.), the animals were intubated and allowed to breathe spontaneously. An arterial catheter was inserted via the femoral artery to monitor blood pressure and i.v. line was inserted into the leg for fluid and drug administration. A constant saline infusion was maintained at 40 to 50 mL/h. Next, a seven cm lower abdominal incision was made one cm lateral to the penis.
The bladder, prostate and a short segment of urethra were identified and isolated, without damage to the nerves or blood vessels. A cystotomy incision was made through which the pressure catheter was inserted and positioned in the prostatic urethra. The cystotomy was not closed, but the wound edges were sutured to stop bleeding. The tip of the catheter was positioned just distal to the prostate and secured in place with an O-silk tie around the urethra. A second holding suture at the bladder neck secured the catheter in place.
Fluid, either water or saline, was pumped by a Harvard infusion pump at 0.1 mL/min through a Gould pressure transducer into the catheter. The fluid exists at a port in the catheter which is in the prostatic urethra. Occlusion of the port, by contraction of the prostate, blocks the flow and a pressure wave is created. This pressure is transmitted back through the catheter to the transducer which is attached to a Gould recorder. Squeezing the prostate gland caused an increase in urethral pressure which verified the correct position in the urethra.
The compounds were tested as follows: A dose response curve was first generated for phenylephrine alone, in doses ranging from one μg/Kg to 50 μg/Kg. The absolute rise in urethral pressure was recorded for each dose and the next dose given when the urethral pressure returned to baseline. Phenylephrine dose response curves were generated in all animals tested. Increasing doses of compounds were then given, and the phenylephrine dose response curve repeated in the prepense of each dose of the compound. No animal received more than one compound; four animals were used to test each compound. To test for tachyphylaxis, four separate dogs were challenged with repeated phenylephrine doses for six hrs, the usual length of each experiment. From the dose-effect data, the inhibition constant (Ki) and the median-effect dose (ED50) were calculated. Both the Ki and ED50 values given are calculated by using microcomputer software and an IBM-PC.

In turn, `CCC1=C(C(N)=O)C(c2ccc([N+](=O)[O-])cc2)C(C(=O)NCCCN2CCC(c3ccccc3)(c3ccccc3)CC2)=C(CC)N1` (centres unmarked) [Example 42, 5-carboxamido-2,6-diethyl-1,4-dihydro-4-(4-nitrophenyl)-3-{N-[3-(4,4-diphenylpiperidin-1-yl)propyl]}carboxamidopyridine] came in with a melting point of 119 to 123 °C. Also, the pA2 with human prostatic tissue came to 8.92 ± 0.08. In addition, in the series with canine prostate, the “Urethral Pressure K i” value is 9 ± 2.5 nmol/kg. Besides, the Ki in series [1] (setting [2]) was 282 nM.
In the case of `CCC1=C(C(=O)NCCCN2CCC(c3ccccc3)(c3ccccc3)CC2)C(c2ccc([N+](=O)[O-])cc2)C(C(=O)OC)=C(C)N1` (centres unmarked) [Example 73, 2-Ethyl-1,4-dihydro-5-methoxycarbonyl-6-methyl-4-(4-nitro) phenyl-3-(N-(3-(4,4-diphenylpiperidin-1-yl)propyl))carboxamidopyridine], the pA2 in the series on human prostatic tissue is given as 8.56 ± 0.07. In addition, the Ki in series [1] (setting [3]) is 148 nM.
In the series with human prostatic tissue, `CCC1=C(C(N)=O)C(c2ccc([N+](=O)[O-])cc2)C(C(=O)NCCCN2CCC(C#N)(c3ccccc3)CC2)=C(CC)N1` (single isomer, unassigned; (+)) [(+)-102] had a pA2 of 10.43 ± 0.14. This molecule also had a Ki in series [1] (setting [4]) of 1230 nM.
Turning to `COC(=O)C1=C(C)NC(C)=C(C(=O)NCCCN2CCC(c3ccccc3)(c3ccccc3)CC2)C1c1cccnc1` (centres unmarked) [Example 14, 1,4-Dihydro-3-methoxycarbonyl-2.6-dimethyl-5-(N-(3-(4,4-diphenylpiperidin-1-yl)propyl)carboxamido)-4-(3-pyridyl)pyridine], the melting point was 244 to 247 °C (dec.). The molecule also showed a Ki in series [1] (setting [2]) of 2630 nM.
`COC(=O)C1=C(C)NC(C)=C(C(=O)NCCCN2CCC(c3ccccc3)(c3ccccc3)CC2)C1c1ccc(C(=O)OC)cc1` (centres unmarked) [Example 25, 1,4-Dihydro-3-methoxycarbonyl-4-(4-methoxycarbonylphenyl)-2,6-dimethyl-5-(N-(3-(4,4-diphenylpiperidin-1-yl)propyl)carboxamide)pyridine] came in with a melting point of 175.5 to 176 °C. The Ki in series [1] (setting [3]) was 331 nM.
In turn, `COC(=O)C1=C(C)NC(C)=C(C(=O)NCCCN2CCC(c3ccccc3)(c3ccccc3)CC2)C1c1ccc(C(C)C)cc1` (centres unmarked) [Example 18, 1,4-Dihydro-4-(4-isopropylphenyl)-3-methoxycarbonyl-2,6-dimethyl-5-(N-(3-(4,4-diphenylpiperidin-1-yl)propyl)carboxamido)pyridine] displayed a melting point of 163 to 163.5 °C. Further, in series [1] (setting [3]), the Ki was 174 nM.
In the same order, the values of `COC(=O)C1=C(C)NC(C)=C(C(=O)NCCCN2CCC(c3ccccc3)(c3ccccc3)CC2)C1c1ccc(OC)cc1` (centres unmarked) [Example 21, 1,4-Dihydro-3-methoxycarbonyl-4-(4-Methoxyphenyl)-2,6-dimethyl-5-(N-(3-(4,4-diphenylpiperidin-1-yl)propyl)carboxamido)pyridine] are 212 to 213 °C and 204 nM.
Regarding `COc1cccc(C2C(C(N)=O)=C(C)NC(C)=C2C(=O)NCCCN2CCC(c3ccccc3)(c3ccccc3)CC2)c1` (centres unmarked) [Example 117, 5-Carboxamido-1,4-dihydro-4-(3-Methoxyphenyl)-2,6-dimethyl-3-(N-(3-(4,4-diphenylpiperidin-1-yl)propyl)carboxamido)-pyridine], the melting point fell in the range of 212 to 213 °C. The Ki in series [1] (setting [4]) was 562 nM.
In turn, `COC(=O)C1=C(C)NC(C)=C(C(=O)NCCCN2CCC(c3ccccc3)(c3ccccc3)CC2)C1c1ccc2c(c1)OCO2` (centres unmarked) [Example 11, 1,4-Dihydro-3-methoxycarbonyl-2,6-dimethyl-4-(3,4-methylenedioxyphenyl)-5-(N-(3-(4,4-diphenylpiperidin-1-yl)propyl)carboxamido)pyridine] registered a melting point of 197 to 200 °C. Moreover, the Ki in series [1] (setting [3]) is 229 nM.
Molecule `COC(=O)C1=C(C)NC(C)=C(C(=O)NCCCN2CCC(c3ccccc3)(c3ccccc3)CC2)C1c1ccc(F)cc1` (centres unmarked) [Example 20, 4-(4-Fluorophenyl)-1,4-dihydro-3-methoxycarbonyl-2,6-dimethyl-5-(N-(3-(4,4-diphenylpiperidin-1-yl)propyl)carboxamido)pyridine] showed a melting point of 251 to 251.5 °C. For the same molecule, the Ki in series [1] (setting [3]) is 120 nM.
Consider `CCC1=C(C(=O)NCCCN2CCC(c3ccccc3)(c3ccccc3)CC2)C(c2ccc([N+](=O)[O-])cc2)C(C(N)=O)=C(C)N1` (centres unmarked) [Example 81, 5-carboxamido-2-ethyl-1,4-dihydro-6-methyl-4-(4-nitro)phenyl-3-(N-(3-(4,4-diphenylpiperidin-1-yl)propyl))carboxamidopyridine hydrochloride], for which the pA2 in the series with human prostatic tissue was 8.60 ± 0.03. The molecule also gave a Ki in series [1] (setting [2]) of 240 nM.
`COC(=O)C1=C(C)NC(C)=C(C(=O)NCCCN2CCC(c3ccccc3)(c3ccccc3)CC2)C1c1ccc(OC)c(OC)c1` (centres unmarked) [Example 26]: the melting point lay within 180 to 181 °C. Besides, the Ki in series [1] (setting [3]) was 437 nM.
For `COC(=O)C1=C(C)NC(C)=C(C(=O)NCCCN2CCC(c3ccccc3)(c3ccccc3)CC2)C1c1ccc(Cl)c([N+](=O)[O-])c1` (centres unmarked) [Example 16, 4-(4-Chloro-3-nitrophenyl)-1,4-dihydro-3-methoxycarbonyl-2,6-dimethyl-5-(N-(3-(4,4-diphenylpiperidin-1-yl)propyl)carboxamido)pyridine] the same measures were 178 to 181 °C and 174 nM.
For `CCC1=C(C(=O)NC)C(c2ccc([N+](=O)[O-])cc2)C(C(=O)NCCCN2CCC(c3ccccc3)(c3ccccc3)CC2)=C(CC)N1` (centres unmarked) [Example 128, 2,6-Diethyl-1,4-dihydro-5-(N-methyl)carboxamido-4-(4-nitrophenyl)-3-{N-[3-(4,4-diphenylpiperidin-1-yl)propyl]}carboxamidopyridine], the melting point was 123 to 126 °C. This molecule also showed a pA2 in the series on human prostatic tissue of 8.21 ± 0.06. The Ki in series [1] (setting [4]) is 1050 nM.
Turning to `COC(=O)C1=C(C)NC(C)=C(C(=O)NCCCN2CCC(c3ccccc3)(c3ccccc3)CC2)C1c1ccc(I)cc1` (centres unmarked) [Example 13, 1,4-Dihydro-4-(4-iodophenyl)-3-methoxycarbonyl-2,6-dimethyl-5-(N-(3-(4,4-diphenylpiperidin-1-yl)propyl)carboxamido)pyridine], the melting point was 228 to 230 °C (dec.). Also, in series [1] (setting [3]), the Ki was 166 nM.
As to `COC(=O)C1=C(C)NC(C)=C(C(=O)NCCCN2CCC(c3ccccc3)(c3ccccc3)CC2)C1c1ccc([N+](=O)[O-])c(OC)c1` (centres unmarked) [Example 29, 1,4-Dihydro-3-methoxycarbonyl-4-(3-methoxy-4-nitrophenyl)-2,6-dimethyl-5-(N-(3-(4,4-diphenylpiperidin-1-yl)propyl)carboxamido)pyridine], the melting point lay within 211 to 213 °C. In series [1] (setting [2]), the Ki was 141 nM.
In the case of `CCC1=C(C(=O)NCCCN2CCC(c3ccccc3)(c3ccccc3)CC2)C(c2ccc([N+](=O)[O-])cc2)C(C(=O)OC(C)(C)C)=C(COCCN=[N+]=[N-])N1` (centres unmarked) [Example 139], the melting point fell in the range of 62 to 67 °C. This molecule also showed a Ki in series [1] (setting [4]) of 141 nM.
As to `CC1=C(C(=O)NCCCN2CCC(c3ccccc3)(c3ccccc3)CC2)C(c2ccc([N+](=O)[O-])cc2)C(C(=O)NC(C)C)=C(C)N1` (centres unmarked) [Example 156, 1,4-Dihydro-3-(N-isopropyl) carboxamido-2,6-dimethyl-4-(4-nitrophenyl)-5-{N-[3-(^414-diphenylpiperidin-1-yl)propyl]}carboxamidopyridine], the melting point lay within 123 to 125 °C. This molecule also had a Ki in series [1] (setting [4]) of 676 nM.
For `COC(=O)C1=C(C)NC(C)=C(C(=O)NCCCN2CCC(c3ccccc3)(c3ccccc3)CC2)C1c1ccc(Cl)c(Cl)c1` (centres unmarked) [Example 24, 4-(3,4-Dichlorophenyl)-1,4-dihydro-3-methoxycarbonyl-2,6-dimethyl-5-(3-(D 44-diphenylpiperidin-1-yl)propylcarboxamido)pyridine], the melting point lay within 177 to 178 °C. Besides, the Ki in series [1] (setting [3]) was 115 nM.
